Data as given in paper PMC12595434, “Development of retinoid nuclear receptor pathway antagonists through targeting aldehyde dehydrogenase 1A3” (iScience, 2025).
Where two headings read alike, the source gives them in different places.

Columns and labels:
CYP2C9 = CYP2C9 (Homo sapiens, UniProt P11712); experiment: CYP inhibition; assay type: in vitro ADME
human ALDH1A2 = target: T1, human ALDH1A2 (Homo sapiens, UniProt O94788); experiment: Recombinant enzyme activity assay; assay type: biochemical; details: for IC50: recombinant activity assay (Table 1), read-out: IC50 molecular, human ALDH1A2
T1 construct: made in house; host or cells: BL21-DE3 E. coli
T1 sequence (O94788 1-518): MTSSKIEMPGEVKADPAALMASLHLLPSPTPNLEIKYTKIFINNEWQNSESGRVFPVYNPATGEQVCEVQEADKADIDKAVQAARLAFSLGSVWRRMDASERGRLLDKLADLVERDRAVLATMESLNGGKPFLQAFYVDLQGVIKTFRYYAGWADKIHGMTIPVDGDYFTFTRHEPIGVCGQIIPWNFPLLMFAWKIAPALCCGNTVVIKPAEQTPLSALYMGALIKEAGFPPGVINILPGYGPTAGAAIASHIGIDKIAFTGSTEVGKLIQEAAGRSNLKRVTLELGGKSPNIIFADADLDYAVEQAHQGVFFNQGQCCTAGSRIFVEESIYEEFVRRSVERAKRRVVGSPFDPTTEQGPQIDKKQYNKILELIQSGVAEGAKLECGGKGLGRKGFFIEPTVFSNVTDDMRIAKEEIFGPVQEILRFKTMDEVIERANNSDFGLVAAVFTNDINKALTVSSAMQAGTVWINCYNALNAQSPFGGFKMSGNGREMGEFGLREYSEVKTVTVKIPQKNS

human ALDH2 = target: T2, human ALDH2 (Homo sapiens, UniProt P05091); experiment: Recombinant enzyme activity assay; assay type: biochemical; details: dose titration
T2 construct: made in house; host or cells: BL21-DE3 E. coli

mouse ALDH1A2 = target: T3, mouse ALDH1A2 (Mus musculus, UniProt Q62148); experiment: Recombinant enzyme activity assay; assay type: biochemical; details: recombinant activity assay (Table 1); read-out: IC50 molecular, mouse ALDH1A2
T3 construct: made in house; host or cells: BL21-DE3 E. coli

mouse ALDH1A3 = target: T4, mouse ALDH1A3 (Mus musculus, UniProt Q9JHW9); experiment: Recombinant enzyme activity assay; assay type: biochemical
T4 construct: made in house; host or cells: BL21-DE3 E. coli
T4 sequence (Q9JHW9 1-512): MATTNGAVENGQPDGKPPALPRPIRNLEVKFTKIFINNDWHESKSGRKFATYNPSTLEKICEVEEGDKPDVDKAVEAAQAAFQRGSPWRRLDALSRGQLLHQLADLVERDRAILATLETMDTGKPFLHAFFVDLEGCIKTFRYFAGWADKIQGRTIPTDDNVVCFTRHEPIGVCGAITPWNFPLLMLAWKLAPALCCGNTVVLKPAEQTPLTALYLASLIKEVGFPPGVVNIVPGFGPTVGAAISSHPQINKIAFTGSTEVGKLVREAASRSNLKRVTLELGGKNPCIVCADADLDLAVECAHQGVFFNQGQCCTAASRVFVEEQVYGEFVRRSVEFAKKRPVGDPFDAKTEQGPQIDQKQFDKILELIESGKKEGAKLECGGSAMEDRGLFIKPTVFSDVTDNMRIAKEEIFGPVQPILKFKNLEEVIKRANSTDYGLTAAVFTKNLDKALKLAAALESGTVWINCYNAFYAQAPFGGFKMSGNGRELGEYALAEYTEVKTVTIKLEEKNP

[1] = Microsomal stability (human); assay type: in vitro ADME; details: microsomes, read-out: Microsomal T1/2 (human)
MDCK-MDR2 = MDCK-MDR2 bidirectional permeability assay; assay type: in vitro ADME; details: A to B
MDR2 = experiment: MDCK-MDR2 bidirectional permeability assay; assay type: in vitro ADME; details: dog; efflux ratio; read-out: MDCK-MDR2 (B to A/A to B)
[2] = Hepatocyte stability (human); assay type: in vitro ADME; details: hepatocytes, read-out: Hepatocyte T1/2 (human)

T2 sequence (P05091 18-517): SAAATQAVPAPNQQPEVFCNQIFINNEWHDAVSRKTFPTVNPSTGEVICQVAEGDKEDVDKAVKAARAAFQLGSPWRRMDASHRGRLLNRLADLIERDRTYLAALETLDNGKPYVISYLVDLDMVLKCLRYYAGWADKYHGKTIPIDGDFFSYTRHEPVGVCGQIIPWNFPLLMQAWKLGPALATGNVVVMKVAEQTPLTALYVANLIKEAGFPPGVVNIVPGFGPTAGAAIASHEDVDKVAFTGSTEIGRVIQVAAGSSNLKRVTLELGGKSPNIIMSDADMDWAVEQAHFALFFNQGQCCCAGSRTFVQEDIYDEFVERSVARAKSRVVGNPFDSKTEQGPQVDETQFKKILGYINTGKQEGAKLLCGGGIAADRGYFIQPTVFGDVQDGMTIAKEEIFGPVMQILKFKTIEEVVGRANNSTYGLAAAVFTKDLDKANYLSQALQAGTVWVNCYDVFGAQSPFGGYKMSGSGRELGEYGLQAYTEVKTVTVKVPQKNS
T3 sequence (Q62148 whole entry): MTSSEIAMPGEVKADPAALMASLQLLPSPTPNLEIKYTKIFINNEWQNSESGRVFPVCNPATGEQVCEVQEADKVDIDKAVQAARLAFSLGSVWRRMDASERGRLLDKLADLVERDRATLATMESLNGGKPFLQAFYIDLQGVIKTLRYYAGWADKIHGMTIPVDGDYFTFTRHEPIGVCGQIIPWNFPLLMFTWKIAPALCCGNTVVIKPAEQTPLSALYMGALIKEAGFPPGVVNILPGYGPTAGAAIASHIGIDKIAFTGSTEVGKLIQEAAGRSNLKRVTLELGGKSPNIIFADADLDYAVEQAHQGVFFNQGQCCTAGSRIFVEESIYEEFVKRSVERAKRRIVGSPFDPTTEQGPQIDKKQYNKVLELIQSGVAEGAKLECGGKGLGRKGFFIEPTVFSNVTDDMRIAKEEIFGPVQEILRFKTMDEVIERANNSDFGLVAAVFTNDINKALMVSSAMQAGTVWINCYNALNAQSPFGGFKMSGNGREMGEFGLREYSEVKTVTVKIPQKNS
CYP2C9, sequence (P11712 whole entry): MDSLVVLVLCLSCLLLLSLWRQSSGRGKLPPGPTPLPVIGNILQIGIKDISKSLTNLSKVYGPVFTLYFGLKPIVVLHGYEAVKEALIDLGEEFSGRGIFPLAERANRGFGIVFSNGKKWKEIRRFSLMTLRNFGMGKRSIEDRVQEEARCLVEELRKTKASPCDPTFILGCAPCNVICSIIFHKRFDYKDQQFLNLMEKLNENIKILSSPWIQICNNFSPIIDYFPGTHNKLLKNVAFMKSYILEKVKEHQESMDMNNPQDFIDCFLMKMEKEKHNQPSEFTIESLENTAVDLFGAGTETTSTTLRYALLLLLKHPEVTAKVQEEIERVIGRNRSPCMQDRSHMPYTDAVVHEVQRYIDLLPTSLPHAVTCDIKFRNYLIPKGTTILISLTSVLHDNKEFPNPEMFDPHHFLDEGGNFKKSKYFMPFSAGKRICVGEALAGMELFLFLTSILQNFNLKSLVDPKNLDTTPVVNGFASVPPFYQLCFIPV

CCc1cnccc1C(=O)Nc1cc2c(cc1F)NC(=O)CC2 [MBE1, 3-ethyl-N-(7-fluoro-2-oxo-3,4-dihydro-1H-quinolin-6-yl)pyridine-4-carboxamide]
inhibition at 10 µM (CYP2C9): 13.9%
fold lower affinity for ALDH1A2 than for ALDH1A3 (human ALDH1A2; biochemical inhibition of each isoform): 4 fold
IC50 (human ALDH1A2): 3.33 µM
inhibitory activity against ALDH2 (in words) (human ALDH2): no inhibition
IC50 (mouse ALDH1A2): 3.33 µM
IC50 (mouse ALDH1A3; dose titration, substrate competition assay, recombinant mouse ALDH1A3, 4-parameter equation, read-out: muALDH1A3 IC50): 0.209 µM
half-life [1]: > 2.42 h
MDCK-MDR2 permeability A to B (MDCK-MDR2): high
efflux ratio (MDR2): 2.42
half-life [2]: > 3.61 h

CCc1ccccc1C(=O)Nc1cc2c(cc1F)NC(=O)CC2 [MBE1.5, 2-ethyl-N-(7-fluoro-2-oxo-3,4-dihydro-1H-quinolin-6-yl)benzamide]
inhibition at 10 µM (CYP2C9): 5.6%
inhibitory activity against ALDH1A2 (in words) (human ALDH1A2; dose titration, up to 10 μM): minimal inhibition
IC50 (human ALDH1A2): 5 µM
inhibitory activity against ALDH2 (in words) (human ALDH2): no inhibition
IC50 (mouse ALDH1A2): 4 µM
IC50 (mouse ALDH1A3; recombinant activity assay (Table 1), read-out: IC50 molecular, mouse ALDH1A3): 0.149 µM
half-life [1]: > 2.42 h
MDCK-MDR2 permeability A to B (MDCK-MDR2): high
efflux ratio (MDR2): 0.6
half-life [2]: > 3.61 h
